Common to all, as to assay: two-electrode voltage clamp, Xenopus oocytes, Hill fit
Type in all cases: cell-based
Common to all, as to settings: agonist (activation); -60 mV, pH 7.6; currents normalized to 100 ppm NaOCl, steady state
A general note: Two-electrode voltage clamp is typically applied to oocytes expressing channels or transporters.

One assay concerns the target T1, hsTRPA1 (Homo sapiens, UniProt O75762).
T1 construct: gene TRPA1; full-length, cRNA injected in Xenopus laevis oocytes

The target in the next assay is T2, TRPA1(A)10a (Drosophila melanogaster, UniProt G8IQ59).
T2 construct: full-length splice isoform, TrpA1 cRNA injected in Xenopus laevis oocytes
T2 sequence (G8IQ59 1-1232): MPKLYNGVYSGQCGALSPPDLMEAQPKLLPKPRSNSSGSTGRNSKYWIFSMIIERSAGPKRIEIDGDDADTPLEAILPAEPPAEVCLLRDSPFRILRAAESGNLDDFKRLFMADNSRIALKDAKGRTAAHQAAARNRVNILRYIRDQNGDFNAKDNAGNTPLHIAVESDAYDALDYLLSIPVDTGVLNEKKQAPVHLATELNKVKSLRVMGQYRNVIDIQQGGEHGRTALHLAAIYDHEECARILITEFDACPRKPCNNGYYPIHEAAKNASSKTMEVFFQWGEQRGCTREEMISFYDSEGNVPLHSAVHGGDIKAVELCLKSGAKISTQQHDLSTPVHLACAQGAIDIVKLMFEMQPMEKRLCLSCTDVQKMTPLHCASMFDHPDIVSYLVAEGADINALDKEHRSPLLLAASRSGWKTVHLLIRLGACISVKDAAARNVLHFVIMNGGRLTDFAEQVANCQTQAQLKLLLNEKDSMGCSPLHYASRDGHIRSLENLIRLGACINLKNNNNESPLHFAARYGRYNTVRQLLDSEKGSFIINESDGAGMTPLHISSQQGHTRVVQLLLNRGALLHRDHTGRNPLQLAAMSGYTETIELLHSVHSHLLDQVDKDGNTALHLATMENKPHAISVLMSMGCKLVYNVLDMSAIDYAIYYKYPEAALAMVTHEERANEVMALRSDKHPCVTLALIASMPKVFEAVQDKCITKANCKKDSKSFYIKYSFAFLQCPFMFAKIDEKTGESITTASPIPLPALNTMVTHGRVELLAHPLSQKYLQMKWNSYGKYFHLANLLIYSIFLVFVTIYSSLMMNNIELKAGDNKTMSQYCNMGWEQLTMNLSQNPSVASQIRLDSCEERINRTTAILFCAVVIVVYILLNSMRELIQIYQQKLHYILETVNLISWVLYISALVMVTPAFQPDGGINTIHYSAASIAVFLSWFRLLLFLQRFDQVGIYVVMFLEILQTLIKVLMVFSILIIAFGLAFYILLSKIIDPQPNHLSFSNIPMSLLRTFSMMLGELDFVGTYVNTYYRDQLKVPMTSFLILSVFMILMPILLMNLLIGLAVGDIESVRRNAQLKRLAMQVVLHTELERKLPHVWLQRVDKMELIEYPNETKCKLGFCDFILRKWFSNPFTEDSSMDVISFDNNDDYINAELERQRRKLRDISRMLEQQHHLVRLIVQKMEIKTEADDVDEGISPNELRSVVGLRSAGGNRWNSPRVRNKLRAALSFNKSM

The target of the next assay is T3, TRPA1(B)10a (Drosophila melanogaster, UniProt Q7Z020).
T3 construct: full-length splice isoform, TrpA1 cRNA injected in Xenopus laevis oocytes
T3 sequence (Q7Z020 1-1197): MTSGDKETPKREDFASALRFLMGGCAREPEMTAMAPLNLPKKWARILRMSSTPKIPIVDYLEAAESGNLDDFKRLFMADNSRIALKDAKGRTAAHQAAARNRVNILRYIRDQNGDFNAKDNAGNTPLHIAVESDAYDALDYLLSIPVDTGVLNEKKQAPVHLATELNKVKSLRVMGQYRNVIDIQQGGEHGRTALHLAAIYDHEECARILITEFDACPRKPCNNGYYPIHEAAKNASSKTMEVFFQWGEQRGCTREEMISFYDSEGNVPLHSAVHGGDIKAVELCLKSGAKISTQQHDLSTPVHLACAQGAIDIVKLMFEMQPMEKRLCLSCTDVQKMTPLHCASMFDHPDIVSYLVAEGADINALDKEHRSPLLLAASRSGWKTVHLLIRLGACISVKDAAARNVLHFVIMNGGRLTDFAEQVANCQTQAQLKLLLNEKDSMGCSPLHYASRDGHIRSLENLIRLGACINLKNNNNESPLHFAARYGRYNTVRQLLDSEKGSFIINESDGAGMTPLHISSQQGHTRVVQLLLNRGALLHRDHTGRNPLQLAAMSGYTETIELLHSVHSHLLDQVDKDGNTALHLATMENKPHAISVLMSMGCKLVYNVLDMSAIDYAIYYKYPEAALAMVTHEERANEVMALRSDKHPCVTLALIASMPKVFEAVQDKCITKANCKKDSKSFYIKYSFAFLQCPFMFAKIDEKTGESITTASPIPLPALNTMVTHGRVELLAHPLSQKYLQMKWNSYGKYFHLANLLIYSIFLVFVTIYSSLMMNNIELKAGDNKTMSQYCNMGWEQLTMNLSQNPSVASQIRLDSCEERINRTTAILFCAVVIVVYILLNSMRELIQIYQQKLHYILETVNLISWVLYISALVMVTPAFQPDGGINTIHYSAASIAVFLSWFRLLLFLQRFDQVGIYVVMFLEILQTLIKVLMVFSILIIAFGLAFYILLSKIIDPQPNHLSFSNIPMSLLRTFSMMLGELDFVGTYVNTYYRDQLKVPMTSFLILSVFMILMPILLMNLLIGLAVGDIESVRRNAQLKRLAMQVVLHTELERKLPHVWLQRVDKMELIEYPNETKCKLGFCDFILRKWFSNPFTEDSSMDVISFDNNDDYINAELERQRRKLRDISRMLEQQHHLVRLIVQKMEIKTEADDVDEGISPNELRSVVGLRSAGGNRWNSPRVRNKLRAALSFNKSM

The target in the next assay is T4, TRPA1(A)10b (Drosophila melanogaster, UniProt H0USS9).
T4 construct: full-length splice isoform, TrpA1 cRNA injected in Xenopus laevis oocytes
T4 sequence (H0USS9 1-1231): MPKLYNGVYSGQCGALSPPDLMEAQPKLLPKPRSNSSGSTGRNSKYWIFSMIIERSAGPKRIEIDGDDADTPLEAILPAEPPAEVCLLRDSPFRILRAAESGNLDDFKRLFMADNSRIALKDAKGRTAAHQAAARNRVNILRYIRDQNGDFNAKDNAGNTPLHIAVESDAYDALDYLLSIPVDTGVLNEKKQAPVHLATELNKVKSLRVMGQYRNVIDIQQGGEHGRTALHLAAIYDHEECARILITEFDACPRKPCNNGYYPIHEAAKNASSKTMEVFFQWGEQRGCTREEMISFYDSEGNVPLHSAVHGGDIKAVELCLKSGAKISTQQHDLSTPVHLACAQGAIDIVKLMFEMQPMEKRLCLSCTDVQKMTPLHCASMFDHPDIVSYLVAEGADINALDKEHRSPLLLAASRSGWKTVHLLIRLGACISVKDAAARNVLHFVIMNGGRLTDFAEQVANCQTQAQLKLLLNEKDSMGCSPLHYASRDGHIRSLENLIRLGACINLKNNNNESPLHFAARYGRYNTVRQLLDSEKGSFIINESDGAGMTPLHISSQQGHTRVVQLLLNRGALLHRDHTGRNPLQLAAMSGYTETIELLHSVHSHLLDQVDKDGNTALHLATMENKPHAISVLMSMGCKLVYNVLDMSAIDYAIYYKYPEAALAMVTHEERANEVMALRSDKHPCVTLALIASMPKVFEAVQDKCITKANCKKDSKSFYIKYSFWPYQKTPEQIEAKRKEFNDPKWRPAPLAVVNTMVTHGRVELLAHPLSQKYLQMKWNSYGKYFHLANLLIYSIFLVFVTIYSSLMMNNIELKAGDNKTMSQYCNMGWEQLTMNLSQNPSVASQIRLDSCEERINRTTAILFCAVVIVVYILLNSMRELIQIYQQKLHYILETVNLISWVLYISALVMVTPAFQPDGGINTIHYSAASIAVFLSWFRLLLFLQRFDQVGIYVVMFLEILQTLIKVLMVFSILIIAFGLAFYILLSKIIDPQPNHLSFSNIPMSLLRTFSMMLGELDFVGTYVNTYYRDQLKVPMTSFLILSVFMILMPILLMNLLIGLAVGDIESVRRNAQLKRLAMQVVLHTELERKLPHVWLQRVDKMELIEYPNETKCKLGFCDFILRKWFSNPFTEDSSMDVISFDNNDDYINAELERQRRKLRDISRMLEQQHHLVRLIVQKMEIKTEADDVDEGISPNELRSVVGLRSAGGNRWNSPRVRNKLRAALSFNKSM
An excerpt: two-electrode voltage clamp, Xenopus oocytes, Hill fit on TRPA1(A)10b | The data were fitted to Hill equation to determine EC50s

The text below walks through data of PMC4699737, “TrpA1 Regulates Defecation of Food-Borne Pathogens under the Control of the Duox Pathway” (PLoS Genetics, 2016).

T1 sequence (O75762 whole entry): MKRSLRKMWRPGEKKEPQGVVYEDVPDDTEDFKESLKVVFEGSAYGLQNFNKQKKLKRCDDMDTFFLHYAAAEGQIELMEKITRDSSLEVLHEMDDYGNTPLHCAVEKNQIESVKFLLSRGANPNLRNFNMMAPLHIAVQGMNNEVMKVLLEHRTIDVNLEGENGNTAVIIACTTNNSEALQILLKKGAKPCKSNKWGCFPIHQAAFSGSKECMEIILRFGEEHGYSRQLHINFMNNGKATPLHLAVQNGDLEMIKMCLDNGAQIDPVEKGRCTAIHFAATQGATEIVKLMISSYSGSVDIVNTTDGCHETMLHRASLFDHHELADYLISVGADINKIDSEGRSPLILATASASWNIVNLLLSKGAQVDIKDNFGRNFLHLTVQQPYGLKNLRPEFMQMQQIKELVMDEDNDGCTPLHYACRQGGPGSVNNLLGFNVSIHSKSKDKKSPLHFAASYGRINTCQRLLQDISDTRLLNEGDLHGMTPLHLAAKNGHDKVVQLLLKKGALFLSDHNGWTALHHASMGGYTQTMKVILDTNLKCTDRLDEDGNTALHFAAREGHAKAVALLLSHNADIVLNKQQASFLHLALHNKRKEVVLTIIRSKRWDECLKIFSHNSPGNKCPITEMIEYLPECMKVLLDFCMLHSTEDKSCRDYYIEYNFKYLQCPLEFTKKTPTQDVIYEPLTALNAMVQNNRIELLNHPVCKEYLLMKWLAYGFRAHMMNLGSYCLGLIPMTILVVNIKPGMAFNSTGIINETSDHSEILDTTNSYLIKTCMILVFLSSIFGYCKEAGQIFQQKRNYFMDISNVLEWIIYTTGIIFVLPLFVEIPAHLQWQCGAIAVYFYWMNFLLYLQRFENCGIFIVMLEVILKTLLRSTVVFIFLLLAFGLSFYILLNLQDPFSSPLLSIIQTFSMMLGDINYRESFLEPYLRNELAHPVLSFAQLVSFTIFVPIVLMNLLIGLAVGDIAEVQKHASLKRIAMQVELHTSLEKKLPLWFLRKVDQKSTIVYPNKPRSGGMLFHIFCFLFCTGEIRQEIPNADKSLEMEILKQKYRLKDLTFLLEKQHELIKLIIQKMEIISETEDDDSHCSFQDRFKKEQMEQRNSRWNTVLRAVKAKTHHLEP

With `OCl` [NaOCl], the EC50 is 21.1±3.6 ppm at hsTRPA1, 5.7±0.6 ppm on TRPA1(A)10a, 13.2±1.0 ppm at TRPA1(B)10a and 1.7±0.7 ppm on TRPA1(A)10b.
